# Assay results from PMC4042638 (The Journal of Experimental Medicine, 2014).
# Biological target: Aβ–fibrinogen interaction (Homo sapiens, UniProt P05067)
# Experiment: AlphaLISA
# Assay type: binding
# Sequence of Aβ–fibrinogen interaction (P05067 672-713): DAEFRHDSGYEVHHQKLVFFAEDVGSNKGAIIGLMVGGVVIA
smiles,measurement,value
CSc1ccc(/C=C2/C(C)=C(CC(=O)O)c3cc(F)ccc32)cc1 [sulindac sulfide],Inhibition of the Aβ–fibrinogen interaction in AlphaLISA (in words),no effect
